Experimental data published in US12649750B2, “Macrocyclic compounds, compositions, and methods of using thereof” (Sionna Therapeutics Inc., priority 2022, dated 2026).

What was measured:
NBD1 = target: T1, NBD1 (Homo sapiens, UniProt P13569); assay: Aggregation analysis using differential static light scattering (DSLS), thermal stability of NBD1 (ΔTagg); assay type: binding; conditions: ΔTagg versus DMSO control, NBD1 0.2 mg/ml
T1 construct: Purified recombinant NBD1 was produced using previously described methods; made in house
Procedure, shortened: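 Purified recombinant NBD1 at 0.2 mg/ml in 50 mM Tris-HCl, 150 mM NaCl, 5 mM MgCl2, 2 mM ATP, 2 mM DTT, pH 7.6, 1% glycerol, with compound, heated 1° C./min to 70° C. under light-scattering monitoring. Tagg taken at curve inflection; ΔTagg is compound Tagg minus mean DMSO-control Tagg, binned A (≤5° C.), B (>5-≤10° C.), C (>10-≤25° C.).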

CFTR = target: T2, CFTR (Homo sapiens, UniProt P13569, DEL508-508); assay: TECC24 AUC fold over DMSO @10 μM, CFTR-mediated transepithelial chloride transport in CF-HBE cells; assay type: cell-based; conditions: test agent AUC divided by DMSO vehicle AUC, primary CF-HBE cells, ΔF508 homozygous donor, 48 hours incubation
T2 construct: Primary human bronchial epithelial cells from a ΔF508 homozygous CF donor; host or cells: primary human bronchial epithelial cells (CF-HBE), ΔF508 homozygous donor
Procedure, shortened: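 ΔF508-homozygous primary bronchial epithelial cells incubated 48 h at 36.5° C with compound (10 μM) in IL-13-containing medium, then TECC24 current-clamp recording in pH 7.4 Hepes saline with benzamil 10 μM, forskolin 10 μM, then CFTR inhibitor-172 20 μM. Equivalent Cl− current AUC between forskolin and inhibitor, expressed as fold over DMSO.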

T2 sequence (P13569 with tags, fused parts or gaps DEL508-508): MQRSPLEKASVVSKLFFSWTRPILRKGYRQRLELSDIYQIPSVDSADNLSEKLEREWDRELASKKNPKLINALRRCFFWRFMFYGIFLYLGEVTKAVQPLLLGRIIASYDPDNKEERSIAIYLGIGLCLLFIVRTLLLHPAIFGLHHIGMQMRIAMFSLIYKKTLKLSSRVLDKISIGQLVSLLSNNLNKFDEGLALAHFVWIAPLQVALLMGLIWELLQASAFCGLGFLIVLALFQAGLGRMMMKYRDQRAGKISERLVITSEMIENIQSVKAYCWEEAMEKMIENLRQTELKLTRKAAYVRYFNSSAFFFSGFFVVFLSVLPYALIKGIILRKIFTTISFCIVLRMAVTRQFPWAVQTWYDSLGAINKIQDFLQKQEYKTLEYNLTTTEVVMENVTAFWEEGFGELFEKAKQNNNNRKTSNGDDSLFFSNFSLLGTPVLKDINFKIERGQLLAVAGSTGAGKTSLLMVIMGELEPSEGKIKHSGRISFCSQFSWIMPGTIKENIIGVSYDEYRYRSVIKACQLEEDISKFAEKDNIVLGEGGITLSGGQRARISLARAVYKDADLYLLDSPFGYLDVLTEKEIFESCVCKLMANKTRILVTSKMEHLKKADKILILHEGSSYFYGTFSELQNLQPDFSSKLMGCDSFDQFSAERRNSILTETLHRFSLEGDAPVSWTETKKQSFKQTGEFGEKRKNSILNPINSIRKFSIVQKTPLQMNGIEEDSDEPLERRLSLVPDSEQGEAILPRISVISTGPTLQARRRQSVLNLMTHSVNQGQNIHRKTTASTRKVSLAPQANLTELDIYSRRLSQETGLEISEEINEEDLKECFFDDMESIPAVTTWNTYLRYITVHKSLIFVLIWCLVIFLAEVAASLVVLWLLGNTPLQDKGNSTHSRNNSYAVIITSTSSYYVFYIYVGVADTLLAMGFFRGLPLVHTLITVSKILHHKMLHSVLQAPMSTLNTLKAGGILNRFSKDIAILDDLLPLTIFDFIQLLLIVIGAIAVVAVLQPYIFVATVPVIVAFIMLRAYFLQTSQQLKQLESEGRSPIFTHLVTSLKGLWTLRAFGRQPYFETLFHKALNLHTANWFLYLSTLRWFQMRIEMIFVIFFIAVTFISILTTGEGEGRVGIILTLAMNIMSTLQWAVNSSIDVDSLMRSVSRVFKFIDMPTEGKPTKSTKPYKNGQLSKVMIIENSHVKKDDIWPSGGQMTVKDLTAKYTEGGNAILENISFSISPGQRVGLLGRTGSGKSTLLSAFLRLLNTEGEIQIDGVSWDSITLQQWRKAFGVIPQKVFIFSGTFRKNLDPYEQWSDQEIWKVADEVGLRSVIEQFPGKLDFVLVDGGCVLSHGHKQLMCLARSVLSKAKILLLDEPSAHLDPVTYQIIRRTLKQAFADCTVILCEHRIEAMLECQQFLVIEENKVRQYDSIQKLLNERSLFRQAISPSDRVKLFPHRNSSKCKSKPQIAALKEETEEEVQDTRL
T1 sequence (P13569 423-646 limits assumed): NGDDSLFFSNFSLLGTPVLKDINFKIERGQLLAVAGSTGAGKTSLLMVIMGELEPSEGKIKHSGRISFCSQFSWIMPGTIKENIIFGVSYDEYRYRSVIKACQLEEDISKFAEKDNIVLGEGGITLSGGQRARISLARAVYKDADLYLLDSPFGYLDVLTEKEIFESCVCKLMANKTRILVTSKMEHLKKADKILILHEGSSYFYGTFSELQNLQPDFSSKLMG

SMILES | DSLS 3D (100 μM ΔT) (NBD1) | TECC (AUC, 10 μM) (CFTR)
C[C@H](Cc1cccc([C@@]2(C)CCCC(C)(C)CS(=O)(=O)CCc3c(ccc4[nH]ccc34)Oc3ccc(F)c(c3)-c3nc2nn3C)c1)C(=O)O [Compound 190, (2R)-3-[3-[(6R)-28-fluoro-3,6,10,10-tetramethyl-12,12-dioxo-24-oxa-12λ6-thia-3,4,19,30-tetrazapentacyclo[23.3.1.12,5.015,23.016,20]triaconta-1(29),2(30),4,15,17,20,22,25,27-nonaen-6-yl]phenyl]-2-methyl-propanoic Acid] | C (a value greater than 10 °C and less than or equal to 25 °C is marked “C”) | B (a value between 12-20 is marked “B”)
C[C@@H](Cc1cccc([C@@]2(C)CCCC(C)(C)CS(=O)(=O)CCc3c(c(F)cc4[nH]ccc34)Oc3ccc(F)c(c3)-c3csc2n3)c1)C(=O)O [Compound 191, (2S)-3-[3-[(6R)-22,28-Difluoro-6,10,10-trimethyl-12,12-dioxo-24-oxa-4,12λ6-dithia-19,30-diazapentacyclo[23.3.1.12,5.015,23.016,20]triaconta-1(29),2,5(30),15,17,20,22,25,27-nonaen-6-yl]phenyl]-2-methyl-propanoic Acid] | C (a value greater than 10 °C and less than or equal to 25 °C is marked “C”) | B (a value between 12-20 is marked “B”)
C[C@@H](Cc1cccc([C@@]2(C)CCCC(C)(C)CS(=O)(=O)CCc3c(c(F)cc4[nH]ccc34)Oc3ccc(F)c(c3)-c3coc2n3)c1)C(=O)O [Compound 192, (2S)-3-[3-[(6R)-22,28-difluoro-6,10,10-trimethyl-12,12-dioxo-4,24-dioxa-12λ6-thia-19,30-diazapentacyclo[23.3.1.12,5.015,23.016,20]triaconta-1(29),2,5(30),15,17,20,22,25,27-nonaen-6-yl]phenyl]-2-methyl-propanoic Acid] | C (a value greater than 10 °C and less than or equal to 25 °C is marked “C”) | C (a value between 20 and 80 is marked “C”)
COC(=O)[C@H](C)Cc1csc(C2(C)CCCC(C)(C)CS(=O)(=O)CCc3c(c(F)cc4[nH]ccc34)Oc3ccc(F)c(c3)-c3nc2nn3C)c1 (stereo partly drawn) [Compound 193, Methyl (2R)-3-[5-(22,28-difluoro-3,6,10,10-tetramethyl-12,12-dioxo-24-oxa-12λ6-thia-3,4,19,30-tetrazapentacyclo[23.3.1.12,5.015,23.016,20]triaconta-1(29),2(30),4,15,17,20,22,25,27-nonaen-6-yl)-3-thienyl]-2-methyl-propanoate] | B (a value above 5 °C and less than or equal to 10 °C is marked “B”) | C (a value between 20 and 80 is marked “C”)
C[C@H](Cc1cccc([C@@]2(C)CCCC(C)(C)CS(=O)(=O)CCc3c(c(F)cc4[nH]ccc34)Oc3ccc(F)c(c3)C3=NN=C2S3)c1)C(=O)O [Compound 194, (2R)-3-[3-[(6R)-22,28-difluoro-6,10,10-trimethyl-12,12-dioxo-24-oxa-12λ6,30-dithia-3,4,19-triazapentacyclo[23.3.1.12,5.015,23.016,20]triaconta-1(29),2,4,15,17,20,22,25,27-nonaen-6-yl]phenyl]-2-methyl-propanoic Acid] | A (an ΔTagg value less than or equal to 5 °C is marked “A”) | B (a value between 12-20 is marked “B”)
C[C@H](Cc1cccc([C@@]2(C)CCCC(C)(C)CS(=O)(=O)CCc3c(c(F)cc4[nH]ccc34)Oc3ccnc(c3)-c3nc2nn3C)c1)C(=O)O [Compound 197, (2R)-3-[3-[(6R)-22-Fluoro-3,6,10,10-tetramethyl-12,12-dioxo-24-oxa-12λ6-thia-3,4,19,28,30-pentazapentacyclo[23.3.1.12,5.015,23.016,20]triaconta-1(29),2(30),4,15,17,20,22,25,27-nonaen-6-yl]phenyl]-2-methyl-propanoic Acid] | C (a value greater than 10 °C and less than or equal to 25 °C is marked “C”) | C (a value between 20 and 80 is marked “C”)
C[C@H](Cc1ccc(C2(C)CCCC(C)(C)CS(=O)(=O)CCc3c(c(F)cc4[nH]ccc34)Oc3ccc(F)c(c3)-c3nc2nn3C)s1)C(=O)O (stereo partly drawn) [Compound 198, (2R)-3-[5-(22,28-difluoro-3,6,10,10-tetramethyl-12,12-dioxo-24-oxa-12λ6-thia-3,4,19,30-tetrazapentacyclo[23.3.1.12,5.015,23.016,20]triaconta-1(29),2(30),4,15,17,20,22,25,27-nonaen-6-yl)-2-thienyl]-2-methyl-propanoic Acid] | C (a value greater than 10 °C and less than or equal to 25 °C is marked “C”) | C (a value between 20 and 80 is marked “C”)
Cn1nc2nc1-c1cc(ccc1F)Oc1c(F)cc3[nH]ccc3c1CCS(=O)(=O)CC(C)(C)CCCC2(C)c1cccc(CC2CCN(O)C2=O)c1 (stereo not shown) [Compound 199, 3-[[3-(22,28-Difluoro-3,6,10,10-tetramethyl-12,12-dioxo-24-oxa-12λ6-thia-3,4,19,30-tetrazapentacyclo[23.3.1.12,5.015,23.016,20]triaconta-1(29),2(30),4,15,17,20,22,25,27-nonaen-6-yl)phenyl]methyl]-1-hydroxy-pyrrolidin-2-one] | C (a value greater than 10 °C and less than or equal to 25 °C is marked “C”) | C (a value between 20 and 80 is marked “C”)
C[C@H](Cc1cccc([C@@]2(C)CCCC(C)(C)CS(=O)(=O)CCc3c(c(F)c(F)c4[nH]ccc34)Oc3ccc(F)c(c3)-c3nc2nn3C)c1)C(=O)O [Compound 200, (2R)-2-methyl-3-[3-[(6R)-21,22,28-trifluoro-3,6,10,10-tetramethyl-12,12-dioxo-24-oxa-12λ6-thia-3,4,19,30-tetrazapentacyclo[23.3.1.12,5.015,23.016,20]triaconta-1(29),2(30),4,15,17,20,22,25,27-nonaen-6-yl]phenyl]propanoic acid] | C (a value greater than 10 °C and less than or equal to 25 °C is marked “C”) | C (a value between 20 and 80 is marked “C”)
C[C@H](Cc1cccc([C@@]2(C)CCCC(C)(C)CS(=O)(=O)CCc3c(c(F)cc4[nH]ccc34)Oc3cncc(c3)-c3nc2nn3C)c1)C(=O)O [Compound 202, (2R)-3-[3-[(6R)-22-fluoro-3,6,10,10-tetramethyl-12,12-dioxo-24-oxa-12λ6-thia-3,4,19,27,30-pentazapentacyclo[23.3.1.12,5.015,23.016,20]triaconta-1(29),2(30),4,15,17,20,22,25,27-nonaen-6-yl]phenyl]-2-methyl-propanoic Acid] | C (a value greater than 10 °C and less than or equal to 25 °C is marked “C”) | C (a value between 20 and 80 is marked “C”)
C[C@H](Cc1cccc([C@@]2(C)CCCC(C)(C)CS(=O)(=O)CCc3c(c(F)c(F)c4[nH]ccc34)Oc3ccnc(c3)-c3nc2nn3C)c1)C(=O)O [Compound 221, (2R)-3-[3-[(6R)-21,22-difluoro-3,6,10,10-tetramethyl-12,12-dioxo-24-oxa-12λ6-thia-3,4,19,28,30-pentazapentacyclo[23.3.1.12,5.015,23.016,20]triaconta-1(29),2(30),4,15,17,20,22,25,27-nonaen-6-yl]phenyl]-2-methyl-propanoic Acid] | C (a value greater than 10 °C and less than or equal to 25 °C is marked “C”) | B (a value between 12-20 is marked “B”)
Cn1nc2nc1-c1cc(ccn1)Oc1c(F)cc3[nH]ccc3c1CCS(=O)(=O)CC(C)(C)CCC[C@]2(C)c1cccc(CC(=O)O)c1 [Compound 226, 2-[3-[(6R)-22-Fluoro-3,6,10,10-tetramethyl-12,12-dioxo-24-oxa-12λ6-thia-3,4,19,28,30-pentazapentacyclo[23.3.1.12,5.015,23.016,20]triaconta-1(29),2(30),4,15,17,20,22,25,27-nonaen-6-yl]phenyl]acetic Acid] | C (a value greater than 10 °C and less than or equal to 25 °C is marked “C”) | C (a value between 20 and 80 is marked “C”)
Cn1nc2nc1-c1cc(ccn1)Oc1c(F)cc3[nH]ccc3c1CCS(=O)(=O)CC(C)(C)CCC[C@]2(C)c1cccc(CCO)c1 [Compound 227, 2-[3-[(6R)-22-Fluoro-3,6,10,10-tetramethyl-12,12-dioxo-24-oxa-12λ6-thia-3,4,19,28,30-pentazapentacyclo[23.3.1.12,5.015,23.016,20]triaconta-1(29),2(30),4,15,17,20,22,25,27-nonaen-6-yl]phenyl]ethanol] | C (a value greater than 10 °C and less than or equal to 25 °C is marked “C”) | B (a value between 12-20 is marked “B”)
C[C@@H](Cc1cccc([C@@]2(C)CCCC(C)(C)CS(=O)(=O)CCc3c(c(F)cc4[nH]ccc34)[S+]([O-])c3ccnc(c3)-c3nc2co3)c1)C(=O)O (stereo partly drawn) [Compound 229, (2S)-3-[3-[(6R)-22-Fluoro-6,10,10-trimethyl-12,12,24-trioxo-3-oxa-12λ6,24λ4-dithia-19,28,30-triazapentacyclo[23.3.1.12,5.015,23.016,20]triaconta-1(29),2(30),4,15,17,20,22,25,27-nonaen-6-yl]phenyl]-2-methyl-propanoic Acid] | C (a value greater than 10 °C and less than or equal to 25 °C is marked “C”) | C (a value between 20 and 80 is marked “C”)
